According to patent US20260334439A1, “BCAT2 INHIBITORS” (Agios Pharmaceuticals, Inc., priority 2023, published 2026):

Key:
BCAT2 [1] = target: T1, BCAT2 (Homo sapiens, UniProt O15382); experiment: BCAT2 cell inhibition using engineered A549 cells (MUT KO, BCAT1 KO; 13C6-KMV formation by LC-MS/MS); assay type: cell-based; parameters: expressed endogenous BCAT2; endogenous in cells; host or cells: A549 cells, MUT knockout and BCAT1 knockout
T1 sequence (O15382 28-392): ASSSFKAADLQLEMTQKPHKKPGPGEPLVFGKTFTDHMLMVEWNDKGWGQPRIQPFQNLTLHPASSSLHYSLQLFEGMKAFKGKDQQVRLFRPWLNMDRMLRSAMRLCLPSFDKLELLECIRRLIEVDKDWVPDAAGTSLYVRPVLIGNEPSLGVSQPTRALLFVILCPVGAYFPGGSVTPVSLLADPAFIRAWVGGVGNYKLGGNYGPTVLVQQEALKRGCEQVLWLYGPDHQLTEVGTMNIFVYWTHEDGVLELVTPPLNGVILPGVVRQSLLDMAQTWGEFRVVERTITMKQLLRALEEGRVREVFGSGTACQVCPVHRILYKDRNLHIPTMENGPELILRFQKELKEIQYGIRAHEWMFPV
Text: Endogenous Methylmalonyl-CoA Mutase (MUT) and Branched Chain Aminotransferase 1 (BCAT1) in A549 cells was knocked out by CRISPR/CAS9 using the targeting system from TransOMIC Technologies. The following guide sequence was cloned into pCLIP-ALL-EFS-Blast vector to target human MUT: […] (SEQ ID NO: 35). The following guide sequence was cloned into pCLIP-ALL-EFS-Puro vector to target human BCAT1: […] (SEQ ID NO: 36). The resulting plasmids were co-transfected into 293T cells with VSV-G, P-PEX, and Fugene-6. Lentivirus was harvested and A549 cells were first transduced with lentivirus targeting MUT and polybrene. After genetic selection with blasticidin clonal selection was performed and validated via western blot analysis to confirm MUT was no longer expressed. These MUT KO cells were then transduced with lentivirus targeting BCAT1 and polybrene. After selection with puromycin clonal selection was performed and clones were validated via western blot analysis to confirm BCAT1 was no longer expressed in these cells. The result was an engineered A549 cell line that expressed endogenous BCAT2.
For KMV cell assays, on day 1, 25,000 cells/100 μL EMEM (10% FBS) were seeded in each well of a 96-well plate. On day 2, medium was replaced with 50 μL fresh EMEM (10% dialyzed FBS) containing 2× the assay concentration of experimental compound. After 15 minutes, 50 μL of 800 uM ^15N,^13C6-Isoleucine in EMEM (10% dialyzed FBS) was added to each well and incubated for 24 hours. On day 3, 50 μL of media from each well was collected and transferred to another 96-well plate for ^13C6-3-Methyl-2-Oxopentanoic Acid (KMV) analysis via LC-MS/MS. In the remaining assay wells 50 μL of Promega Glo CTG reagent was added and luminescence was measured as a cell viability readout.
For LC-MS/MS analysis 5 μL of cell assay media from each well was transferred to a 96-well plate and 45 μL of ACN:0.1% NaOH (50:50, v/v)^+0.20 nM d8-KMV was added and mixed on a shaker. 15 μL was transferred to a new 96-well plate and 15 μL of 10 mg/mL PFBHA solution was added and mixed on the shaker. The reaction was placed on ice for 30 minutes and quenched with 10 μL of ACN: Acetone (50:50, v/v) on a shaker. The resulting mixture was diluted with 100 μL of ACN:0.1% NaOH (50:50, v/v) on a shaker. 10 μL of sample were injected on the Shimadzu 20AD LC-MS/MS to quantify ^13C6-KMV.
Where a compound was tested multiple times, the average value of the tests is reported.

BCAT2 [2] = target: T1, BCAT2; experiment: BCAT2 in vitro enzyme inhibition assay (hBCAT2, glutamate dehydrogenase/diaphorase/resazurin coupled fluorescence read); assay type: biochemical; conditions: hBCAT2, 1 h preincubation at 25° C., one hour reaction; average where tested multiple times
In short: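 Coupled GDH/diaphorase/resazurin fluorescence (Ex 540/Em 590) read after 1 h reaction at 25 °C, SDS-stopped; enzyme (0.33 μg/mL in mix) first preincubated 1 h with compound, 10-point 3-fold series from 100 μM final, Tris pH 8.0 buffer with NaCl, BSA; technical duplicates, averaged across tests.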

[3] = read-out: BCAT2 Cell Inhibition (IC50), engineered A549 cells, 24 hours, 13C6-KMV in media, average where tested multiple times

Row | IC50 (BCAT2 [1]) [nM] | IC50 (BCAT2 [2]) [nM] | IC50 (BCAT2 [1]; [3]) [nM] | Structure (SMILES)
1 | < 100 | < 100 |  | CCOc1ncc(Cl)cc1C(=O)N[C@H]1CCC[C@@H](n2c(-c3ccccc3F)nc3cnc(-c4nc[nH]n4)cc32)C1 [Example 23, 5-chloro-2-ethoxy-N-((1S,3R)-3-(2-(2-fluorophenyl)-6-(1H-1,2,4-triazol-3-yl)-1H-imidazo[4,5-c]pyridin-1-yl)cyclohexyl)nicotinamide]
2 | 100 to 500 | < 100 |  | CCOc1ccc(Cl)cc1C(=O)N[C@H]1CCC[C@@H](n2c(-c3ccccn3)nc3cnc(-c4nc[nH]n4)cc32)C1 [Example 26, 5-chloro-2-ethoxy-N-((1S,3R)-3-(2-(pyridin-2-yl)-6-(1H-1,2,4-triazol-3-yl)-1H-imidazo[4,5-c]pyridin-1-yl)cyclohexyl)benzamide]
3 | < 100 | < 100 |  | CCOc1ccc(Cl)cc1C(=O)N[C@H]1CCC[C@@H](n2c(-c3ncccc3F)nc3cnc(-c4nc[nH]n4)cc32)C1 [Example 27, 5-chloro-2-ethoxy-N-((1S,3R)-3-(2-(3-fluoropyridin-2-yl)-6-(1H-1,2,4-triazol-3-yl)-1H-imidazo[4,5-c]pyridin-1-yl)cyclohexyl)benzamide]
4 | < 100 | < 100 |  | O=C(N[C@H]1CCC[C@@H](n2c(-c3ccccc3F)nc3cnc(-c4nc[nH]n4)cc32)C1)c1cc(Cl)ccc1OC1CC1 [Example 29, 5-chloro-2-cyclopropoxy-N-((1S,3R)-3-(2-(2-fluorophenyl)-6-(1H-1,2,4-triazol-3-yl)-1H-imidazo[4,5-c]pyridin-1-yl)cyclohexyl)benzamide]
5 |  | 100 to 500 | > 1000 | CCNc1ccc(Cl)cc1C(=O)N[C@H]1CCC[C@@H](n2c(-c3ccccc3F)nc3cnc(-c4nc[nH]n4)cc32)C1 [Example 32, 5-chloro-2-(ethylamino)-N-((1S,3R)-3-(2-(2-fluorophenyl)-6-(1H-1,2,4-triazol-3-yl)-1H-imidazo[4,5-c]pyridin-1-yl)cyclohexyl)benzamide]
6 | < 100 | < 100 |  | O=C(N[C@H]1CCC[C@@H](n2c(-c3ccccc3F)nc3cnc(-c4nc[nH]n4)cc32)C1)c1cc(Cl)ccc1OCCO [Example 34, 5-chloro-N-((1S,3R)-3-(2-(2-fluorophenyl)-6-(1H-1,2,4-triazol-3-yl)-1H-imidazo[4,5-c]pyridin-1-yl)cyclohexyl)-2-(2-hydroxyethoxy)benzamide]
7 | < 100 | < 100 |  | CC(C)(O)COc1ccc(Cl)cc1C(=O)N[C@H]1CCC[C@@H](n2c(-c3ccccc3F)nc3cnc(-c4nc[nH]n4)cc32)C1 [Example 39, 5-chloro-N-((1S,3R)-3-(2-(2-fluorophenyl)-6-(1H-1,2,4-triazol-3-yl)-1H-imidazo[4,5-c]pyridin-1-yl)cyclohexyl)-2-(2-hydroxy-2-methylpropoxy)benzamide]
8 | 100 to 500 | < 100 |  | O=C(N[C@H]1CCC[C@@H](n2c(-c3ccccc3F)nc3cnc(-c4nc[nH]n4)cc32)C1)c1cc(Cl)ccc1CO [Example 40, 5-chloro-N-((1S,3R)-3-(2-(2-fluorophenyl)-6-(1H-1,2,4-triazol-3-yl)-1H-imidazo[4,5-c]pyridin-1-yl)cyclohexyl)-2-(hydroxymethyl)benzamide]

More lines, now with the values behind:

Row | Structure (SMILES) | IC50 (BCAT2 [1]) [nM] | IC50 (BCAT2 [2]) [nM] | IC50 (BCAT2 [1]; [3]) [nM]
9 | COc1ncc(Cl)cc1C(=O)N[C@H]1CCC[C@@H](n2c(-c3ccccc3F)nc3cnc(-c4nc[nH]n4)cc32)C1 [Example 22, 5-chloro-N-((1S,3R)-3-(2-(2-fluorophenyl)-6-(1H-1,2,4-triazol-3-yl)-1H-imidazo[4,5-c]pyridin-1-yl)cyclohexyl)-2-methoxynicotinamide] | < 100 | < 100 | 
10 | CCN(C)Cc1nc2cnc(-c3nc[nH]n3)cc2n1[C@@H]1CCC[C@H](NC(=O)c2cc(Cl)ccn2)C1 [Example 24, 4-chloro-N-((1S,3R)-3-(2-((ethyl(methyl)amino)methyl)-6-(1H-1,2,4-triazol-3-yl)-1H-imidazo[4,5-c]pyridin-1-yl)cyclohexyl)picolinamide] |  | 500 to 1000 | > 1000
11 | O=C(N[C@H]1CCC[C@@H](n2c(-c3ccccn3)nc3cnc(-c4nc[nH]n4)cc32)C1)c1cc(Cl)ccn1 [Example 25, 4-chloro-N-((1S,3R)-3-(2-(pyridin-2-yl)-6-(1H-1,2,4-triazol-3-yl)-1H-imidazo[4,5-c]pyridin-1-yl)cyclohexyl)picolinamide] | 100 to 500 | < 100 | 
12 | O=C(N[C@H]1CCC[C@@H](n2c(-c3ccccc3F)nc3cnc(-c4nc[nH]n4)cc32)C1)c1cc(Cl)cc2ccoc12 [Example 31, 5-chloro-N-((1S,3R)-3-(2-(2-fluorophenyl)-6-(1H-1,2,4-triazol-3-yl)-1H-imidazo[4,5-c]pyridin-1-yl)cyclohexyl)benzofuran-7-carboxamide] | < 100 | < 100 | 
13 | COc1ccc(C#N)cc1C(=O)N[C@H]1CCC[C@@H](n2c(-c3ccccc3F)nc3cnc(-c4nc[nH]n4)cc32)C1 [Example 33, 5-cyano-N-((1S,3R)-3-(2-(2-fluorophenyl)-6-(1H-1,2,4-triazol-3-yl)-1H-imidazo[4,5-c]pyridin-1-yl)cyclohexyl)-2-methoxybenzamide] | 500 to 1000 | < 100 | 
14 | O=C(N[C@H]1CCC[C@@H](n2c(-c3ccccc3F)nc3cnc(-c4nc[nH]n4)cc32)C1)c1cc(Cl)ccc1OCCN1CCCC1 [Example 35, 5-chloro-N-((1S,3R)-3-(2-(2-fluorophenyl)-6-(1H-1,2,4-triazol-3-yl)-1H-imidazo[4,5-c]pyridin-1-yl)cyclohexyl)-2-(2-(pyrrolidin-1-yl)ethoxy)benzamide] | 500 to 1000 | 100 to 500 | 
15 | CC(C)Oc1ccc(Cl)cc1C(=O)N[C@H]1CCC[C@@H](n2c(-c3ccccc3C#N)nc3cnc(-c4nc[nH]n4)cc32)C1 [Example 36, 5-chloro-N-((1S,3R)-3-(2-(2-cyanophenyl)-6-(1H-1,2,4-triazol-3-yl)-1H-imidazo[4,5-c]pyridin-1-yl)cyclohexyl)-2-isopropoxybenzamide] | < 100 | < 100 | 
16 | CN(C)Cc1ccc(Cl)cc1C(=O)N[C@H]1CCC[C@@H](n2c(-c3ccccc3F)nc3cnc(-c4nc[nH]n4)cc32)C1 [Example 37, 5-chloro-2-((dimethylamino)methyl)-N-((1S,3R)-3-(2-(2-fluorophenyl)-6-(1H-1,2,4-triazol-3-yl)-1H-imidazo[4,5-c]pyridin-1-yl)cyclohexyl)benzamide] | 500 to 1000 | < 100 | 
17 | N#Cc1ccccc1-c1nc2cnc(-c3nc[nH]n3)cc2n1[C@@H]1CCC[C@H](NC(=O)c2cc(Cl)ccn2)C1 [Example 45, 4-chloro-N-((1S,3R)-3-(2-(2-cyanophenyl)-6-(1H-1,2,4-triazol-3-yl)-1H-imidazo[4,5-c]pyridin-1-yl)cyclohexyl)picolinamide] | < 100 | < 100 | 
18 | CC(C)COc1ccc(Cl)cc1C(=O)N[C@H]1CCC[C@@H](n2c(-c3ccccc3C#N)nc3cnc(-c4nc[nH]n4)cc32)C1 [Example 49, 5-chloro-N-((1S,3R)-3-(2-(2-cyanophenyl)-6-(1H-1,2,4-triazol-3-yl)-1H-imidazo[4,5-c]pyridin-1-yl)cyclohexyl)-2-isobutoxybenzamide] | 100 to 500 | < 100 | 
